12 molecules from US20230219911A1, “BENZOTHIAZOLE DERIVATIVES AND USES THEREOF” (SHENYANG PHARMACEUTICAL UNIVERSITY, priority 2020, published 2023) can be followed below.

Test [1] addresses T1, sEH enzyme (human recombinant) (Homo sapiens, UniProt P34913).
T1 construct: purchased Cayman Chemical
T1 sequence (P34913 1-555): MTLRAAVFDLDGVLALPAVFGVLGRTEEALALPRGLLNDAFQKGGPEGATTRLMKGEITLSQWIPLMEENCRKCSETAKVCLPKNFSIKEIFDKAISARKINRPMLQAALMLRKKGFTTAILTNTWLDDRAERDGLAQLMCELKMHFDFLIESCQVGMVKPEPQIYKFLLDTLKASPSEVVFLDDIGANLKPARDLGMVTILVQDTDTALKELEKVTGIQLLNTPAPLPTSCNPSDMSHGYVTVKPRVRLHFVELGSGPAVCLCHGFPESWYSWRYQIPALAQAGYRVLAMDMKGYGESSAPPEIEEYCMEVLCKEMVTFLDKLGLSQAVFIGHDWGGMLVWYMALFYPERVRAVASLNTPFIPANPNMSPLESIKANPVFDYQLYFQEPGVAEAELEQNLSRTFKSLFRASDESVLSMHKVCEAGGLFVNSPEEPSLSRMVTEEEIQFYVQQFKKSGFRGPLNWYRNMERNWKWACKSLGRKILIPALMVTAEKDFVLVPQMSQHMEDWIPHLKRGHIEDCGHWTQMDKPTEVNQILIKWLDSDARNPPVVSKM
The test is described as follows: in vitro IC50 of soluble epoxide hydrolase (sEH) by fluorescence analysis. It is filed as biochemical. On the procedure:
The benzothiazole skeleton compounds according to the above formula I of the present invention were tested for the in vitro sEH enzyme activity by fluorescence analysis. […] 12 μL of sEH enzyme (human recombinant, 0.5 mg/mL, Cayman Chemical) was diluted with 588 μL of buffer (25 mM bis-Tris, pH 7.0). […] The inhibitions at different concentrations for the compound were respectively measured in accordance with the inhibition assay, to calculate IC50.

Test [2] deals with T1, sEH enzyme (human recombinant). Briefly: in vitro sEH enzyme activity by fluorescence analysis, single concentration inhibition. The conditions noted are these: read-out: sEH % inhibition, @ 0.1 μM. The class given is biochemical. On the procedure:
The benzothiazole skeleton compounds (concentration: 0.1 μM) according to the above formula I of the present invention were tested for the in vitro sEH enzyme activity by fluorescence analysis.
12 μL of sEH enzyme (human recombinant, 0.5 mg/mL, Cayman Chemical) was diluted with 588 μL of buffer (25 mM bis-Tris, pH 7.0). The fluorescent substrate was PHOME (cyano-(6-methoxy-naphthalen-2-yl)-methyl (3-phenyl-oxiranyl)-acetate) in DMSO (10 μM, Cayman Chemical). The compound to be tested was dissolved in 100% DMSO at a concentration of 4 μM. 185 μL of buffer (25 mM bis-Tris, pH 7.0), 5 μL of compound solution, and 5 μL of diluted sEH enzyme were added to the wells of a 96-well plate, and finally 5 μL of substrate solution was added to initiate the reaction. After incubating at 37° C. for 15 min, the fluorescence signal was measured with a microplate reader (excitation wavelength 330 nm, emission wavelength 465 nm).
Inhibition (%)=(F0−F1)/(F0)×100.

The test system of test [3] is lipopolysaccharide-injected KM mice, forced swimming test. The test is described as follows: Measurement of antidepressant effect, lipopolysaccharide / forced swimming test. It is filed as in vivo. The conditions noted are these: subcutaneous injection 23 hours after lipopolysaccharide, test 1 hour later, FIG. 7. On the procedure:
Male KM mice (6 to 8 weeks old) (SPF (Beijing) Biotechnology Co., Ltd.) swam in advance for 10 min, and were injected with lipopolysaccharide (0.5 mg/kg). After 23 hours, the mice were subcutaneously injected with the solutions of the compounds of Examples 12 and 40 or the blank solvent. After 1 hour, the mice were subjected to the forced swimming test for 6 min, and the immobility time (s) in later 4 minute for the mice in each group was recorded.

The subject of test [4] is carrageenan inflammatory pain model SD rats. Briefly: Measurement of analgesic effect, carrageenan inflammatory pain model, hot plate. The class given is in vivo. The conditions noted are these: intragastric suspension 15 mg/mL, 1 hour before modeling, FIG. 6. As for the experimental part:
Male SD rats (6 to 8 weeks old) (SPF (Beijing) Biotechnology Co., Ltd.) were subcutaneously injected with 50 μL of 1% λ-carrageenan saline solution at planta to prepare an inflammatory pain model (Rose T E, Morisseau C, Liu J Y, et al. 1-Aryl-3-(1-acylpiperidin-4-yl)urea inhibitors of human and murine soluble epoxide hydrolase: structure-activity relationships, pharmacokinetics, and reduction of inflammatory pain. J Med Chem, 2010, 53(19): 7067-7075). The compounds of Examples 12 and 40 were added to 0.5% sodium carboxymethylcellulose solution and ground to prepare a suspension with a concentration of 15 mg/mL. 1 hour before modeling, the rats were intragastrically administrated. The changes in the paw withdrawal time of rats were measured with a hot plate dolorimeter.

The subject of test [5] is streptozotocin STZ diabetic model Balb/c mice. Briefly: Measurement of hypoglycemic effect, streptozotocin diabetic model. The class given is in vivo. The conditions noted are these: intraperitoneal once a day, after two weeks, FIG. 4. As for the experimental part: Male Balb/c mice (6 to 8 weeks old) (SPF (Beijing) Biotechnology Co., Ltd.) were intraperitoneally injected with streptozotocin STZ (40 mg/kg) once a day for 5 consecutive days, to prepare a diabetic model (Like A A, Rossini A A. Streptozotocin-induced pancreatic insulitis: new model of diabetes mellitus. Science, 1976, 193(4251):415-7). The mice after modeling were intraperitoneally injected with the solution of compound of Example 12 once a day.

In test [6] the test system is carrageenan-induced paw swelling in KM mice. Briefly: Measurement of anti-inflammatory effect, carrageenan-induced paw swelling. The class given is in vivo. The conditions noted are these: intraperitoneal injection 1 hour before carrageenan, FIG. 3. On the procedure: 1 hour in advance, the mice were intraperitoneally injected with the solutions of the compounds of Examples 12, 18, 27, and 40 (10% PEG 400, 10% Tween 80) or the blank solvent, respectively. Taking the initial paw thickness of the mice before modeling as 100%, the changes in the paw thickness of the mice were measured.
Background: In the carrageenan paw model, swelling and tenderness develop within hours.

Test [7] has as its system traumatic brain injury model SD rats. The test is described as follows: Measurement of brain injury protection, traumatic brain injury model (modified Feeney method). The class given is in vivo. As for the experimental part: 45 male SD rats (6 to 8 weeks old) (SPF (Beijing) Biotechnology Co., Ltd.) were divided into the sham group, blank solvent group, and dosing group. 72 hours after intraperitoneally injecting the compound of Example 12 or blank solvent, a traumatic brain injury model was established using the modified Feeney method (Marmarou A, Foda M A, van den Brink W, et al., A new model of diffuse brain injury in rats. Part I: Pathophysiology and biomechanics. Journal of Neurosurgry, 1994, 80(2):291 to 300.). 23 hours after model establishment, three […] in each group were injected with Evans blue solution through the tail vein, and after 1 hour of circulation, the mice were decapitated and the brain was taken out to determine the content of Evans blue (EB), so as to study the permeability. Another three rats were taken to measure the water content in brain.

Test [8] deals with unilateral ureteral obstruction (UUO) C57BL/6J mice. Briefly: Measurement of anti-fibrosis effect, unilateral ureteral obstruction (UUO) model. The class given is in vivo. The conditions noted are these: intraperitoneal 30 mg·kg−1·d−1, 7 days after modeling. As for the experimental part:
Male C57BL/6J mice (6 to 8 weeks old) (SPF (Beijing) Biotechnology Co., Ltd.) were divided into 3 groups: sham group, unilateral ureteral obstruction (UUO) group, and UUO+Ex. 16 compound group. After the mice were anesthetized, the left ureter was ligated and cut to create a model. In the sham group, the ureter was only isolated without ligation. The experimental animals were administrated 72 hours before modeling, and the aqueous solution of Ex. 16 compound (10% PEG400, 10% Tween 80, concentration: 9 mg/mL) was intraperitoneally injected at a dose of 30 mg·kg^−1·d^−1; and the sham group and UUO group were intraperitoneally injected with an equal volume of blank solvent. 7 days after modeling, the animals were sacrificed, and samples were taken for testing.

[9] abbreviates: compound 0.1 μM, human recombinant sEH, PHOME substrate, 37° C. 15 min.
Where [10] appears, read: human recombinant sEH, PHOME substrate, read-out: IC50.

Where two headings read alike, the source gives them in different places.

Consider `Nc1nc2ccc(NC(=O)Nc3ccc(Cl)cc3)cc2s1` [Example 1, 1-(2-aminobenzo[d]thiazol-6-yl)-3-(4-chlorophenyl)urea], for which, in test [1], the IC50 turned out to be 4.8 nM. Also, in test [2] (setting [9]), the inhibition at 0.1 µM worked out at 76.1%.

On to `Nc1nc2ccc(NC(=O)NC34C[C@H]5C[C@@H](C3)C[C@@H](C4)C5)cc2s1` [Example 4, 1-(2-aminobenzo[d]thiazol-6-yl)-3-[(3s,5s,7s)-adamantan-1-yl]urea], for which the IC50 in test [1] turned out to be 122 nM. Also, the inhibition at 0.1 µM in test [2] (setting [9]) was found to be 77.3%.

Consider `O=C(Nc1ccc(Cl)cc1)Nc1ccc2nc(NC(=O)Nc3ccc(Cl)cc3)sc2c1` [Example 7, 1,1′-(benzo[d]thiazol-2,6-diyl)bis[3-(4-chlorophenyl)urea]], for which the IC50 in test [1] (setting [10]) was 9.2 nM. The inhibition at 0.1 µM in test [2] (setting [9]) turned out to be 59.9%.

On to `Nc1nc2ccc(N(CCN3CCOCC3)C(=O)Nc3ccc(Cl)cc3)cc2s1` [Example 12, 1-(2-aminobenzo[d]thiazol-6-yl)-1-[2-(4-morpholinyl)ethyl]-3-(4-chlorophenyl)urea], for which the IC50 in test [1] (setting [10]) amounted to 4.1 nM. For the same molecule, the “immobility time in forced swimming” value in test [3] is “significantly reduce the immobility time”. For the same molecule, the “paw withdrawal time in hot plate dolorimeter” value in test [4] is reported as “significantly prolong the paw withdrawal time”. Moreover, in test [5], the blood glucose result was “significantly lower than that of the model group” and the glucose tolerance entry is reported as “higher than that of the model group”. Moreover, in test [6], the “carrageenan-induced paw swelling (paw thickness)” value (“carrageenan-induced paw swelling” for short) is reported as “significantly inhibit” and the “effect on paw swelling compared with celecoxib” value (“effect … compared with celecoxib” for short) is “better than that of celecoxib”. In test [7] (30 mg/kg intraperitoneal, 72 hours before traumatic brain injury, * p < 0.05 vs blank solvent group), the “Water content in brain (%)” value is 79.46 ± 0.68 * %. Further, the “EB content (μg/g)” value in test [7] (30 mg/kg intraperitoneal, Evans blue in brain, 24 hours after model, * p < 0.05 vs blank solvent group) is 25.23 ± 1.63 * μg/g. For the same molecule, the “water content in brain (in words)” value in test [7] (traumatic brain injury rats, text summary of Table 4) is listed as “reduce the water content”. The inhibition at 0.1 µM in test [2] is 68.7%.

Take `Nc1nc2ccc(N(CCN3CCOCC3)C(=O)Nc3ccc(C(F)(F)F)cc3)cc2s1` [Example 13, 1-(2-aminobenzo[d]thiazol-6-yl)-1-[2-(4-morpholinyl)ethyl]-3-(4-trifluoromethylphenyl)urea]: the IC50 in test [1] (setting [10]) stood at 2.8 nM. Also, in test [2] (setting [9]), the inhibition at 0.1 µM was found to be 63.9%.

On to `Nc1nc2ccc(N(CCN3CCOCC3)C(=O)Nc3ccc(F)c(Br)c3)cc2s1` [Example 16, 1-(2-aminobenzo[d]thiazol-6-yl)-1-[2-(4-morpholinyl)ethyl]-3-(3-bromo-4-fluorophenyl)urea], for which the IC50 in test [1] (setting [10]) was determined as 0.25 nM. Further, the “level of EETs in mouse kidney tissue” value in test [8] (FIG. 1) was “maintain the level of EETs”. In addition, in test [8] (FIG. 2), the collagen deposition result was “reduce the collagen deposition” and the fibrotic areas entry was “decrease the fibrotic areas”. Also, the inhibition at 0.1 µM in test [2] (setting [9]) stood at 79.7%.

Take `CCc1ccc(NC(=O)N(CCN2CCOCC2)c2ccc3nc(N)sc3c2)cc1` [Example 18, 1-(2-aminobenzo[d]thiazol-6-yl)-1-[2-(4-morpholinyl)ethyl]-3-(4-ethylphenyl)urea]: the IC50 in test [1] turned out to be 6.7 nM. Further, in test [6], the “carrageenan-induced paw swelling” value is “significantly inhibit” and the “effect … compared with celecoxib” value was “better than that of celecoxib”. Besides, the inhibition at 0.1 µM in test [2] (setting [9]) was found to be 84.7%.

Turning to `CN(C)CCN(C(=O)Nc1ccc(Cl)cc1)c1ccc2nc(N)sc2c1` [Example 25, 1-(2-aminobenzo[d]thiazol-6-yl)-1-[2-(N,N-dimethylamino)ethyl]-3-(4-chlorophenyl)urea], the concentration for half-maximal inhibition (IC50) in test [1] (setting [10]) was found to be 27.1 nM. Also, the inhibition at 0.1 µM in test [2] (setting [9]) was 70.4%.

Turning to `O=C(Cc1ccccc1)Nc1nc2ccc(N(CCN3CCOCC3)C(=O)Nc3ccc(Cl)cc3)cc2s1` [Example 27, 1-(2-phenylacetamidobenzo[d]thiazol-6-yl)-1-[2-(4-morpholinyl)ethyl]-3-(4-chlorophenyl)urea], the IC50 in test [1] was 0.02 nM. In test [6], the “carrageenan-induced paw swelling” value was “significantly inhibit” and the “effect … compared with celecoxib” value was “better than that of celecoxib”. In addition, in test [2] (setting [9]), the inhibition at 0.1 µM was 79.4%.

Take `CCOC(=O)CNc1nc2ccc(N(CCN3CCOCC3)C(=O)Nc3ccc(Cl)cc3)cc2s1` [Example 29]: the IC50 in test [1] (setting [10]) was found to be 2.6 nM. In test [2] (setting [9]), the inhibition at 0.1 µM stood at 69%.

On to `CC(=O)Nc1nc2ccc(N(CCN3CCOCC3)C(=O)Nc3ccc(Cl)cc3)cc2s1` [Example 30, 1-(2-acetamidobenzo[d]thiazol-6-yl)-1-[2-(4-morpholinyl)ethyl]-3-(4-chlorophenyl)urea], for which the IC50 in test [1] (setting [10]) was determined as 1.9 nM. In test [2] (setting [9]), the inhibition at 0.1 µM was determined as 27.5%.

For the molecule `O=C(NCc1ccccc1)Nc1nc2ncc(N(CCN3CCOCC3)C(=O)Nc3ccc(Br)c(F)c3)cc2s1` [Example 47, 1-[2-(3-benzylureido)thiazo[4,5-b]pyridin-6-yl]-1-[2-(4-morpholinyl)ethyl]-3-(4-bromo-3-fluorophenyl)urea], in test [2] (setting [9]), the inhibition at 0.1 µM was 32.5%.

As usually defined, the IC50 is the concentration that inhibits the measured activity by half. Usually inhibition stands for the relative decrease from the control value, in per cent.
